Experimental findings from publication PMC6382874, “Succinylation-dependent mitochondrial translocation of PKM2 promotes cell survival in response to nutritional stress” (Cell Death & Disease, 2019) are described below.

Where two headings read alike, the source gives them in different places.

Broadly, the IC50 is the midpoint of a concentration-inhibition curve.

One test addresses T1, PKM1 (Homo sapiens, UniProt P14618).
T1 construct: His-tag (N); made in house; host or cells: Escherichia coli BL21
In words: fluorescent PK-LDH coupled assay, PKM1. In kind it is biochemical. The following applies: recombinant enzyme, PK-LDH coupled assay; read-out: IC50 (PKM1). The protocol:
Human cDNA for PKM2, PKM1, and VDAC3 were separately cloned into a pET28a (+) and pGEX-4T-1 vector with an N-terminal His-tag and N-terminal GST-tag and purified from the Escherichia coli strain BL21 (Invitrogen) using Ni–agarose beads and GST agarose beads (Qiagen) as described previously. PKL was purchased from Sino Biological Inc. in China.
Pyruvate kinase activity was measured with a fluorescent pyruvate kinase–lactate dehydrogenase coupled assay as described previously. All compounds were tested in a kinetic mode by coupling the generation of pyruvate by pyruvate kinase to the depletion of NADH through lactate dehydrogenase. For PKM2, 40 μL of buffer (50 mM Tris–HCl, pH 7.5, 10 mM KCl, 5 mM MgCl2), 1 μL of compound and 5 μL of enzyme solution were dispensed into Corning black solid 96-well plates and incubated for 15 min. Totally, 55 μL of substrate mix (final concentration, 0.5 mM PEP, 4.0 mM ADP, 0.12 mM NADH, 0.25 mM FBP, and 1 unit LDH) were then added, and the plates were placed in a FlexStation3 (Molecular Devices), followed by determination of NADH fluorescence at 30 s exposure intervals for 3–6 min. Data were collected on a FlexStation3.

Test [1] deals with HCT116 cells. In words: cell viability test, HCT116. Type of test: cell-based, human. The following applies: cell viability, 48 h, read-out: IC50 (HCT116). The protocol: (§1) We assessed the anti-tumor effects of compound 8 by evaluation of cancer cell viability. Compound 8 reduced cell viability with an IC50 of about 5 µM in MTT reduction assays in HCT116, MCF7, and H1299 cells (Table 2). […] To determine whether cancer cell death brought about by compound 8 is PKM2 dependent, PKM2 was knocked down in HCT116 cells using two different shRNA sequences that specifically targeted exon 10 without interfering with PKM1 expression. Compound 8 is an inhibitor which causes a loss of function of PKM2. If PKM2 is a specially targeted by compound 8, its knockdown should render cells more vulnerable to compound 8-mediated PKM2 inhibition since shRNA and compound 8 work synergistically by reducing the intracellular drug target concentration.
Cells were seeded in 96-well plates at 5000 cells/well in DMEM media overnight. Cells were treated with different concentrations of test compound for 48 h at 37 °C in 5% CO2. Cell viability was assayed with the MTS assay (Promega) and trypan blue staining according to the manufacturer’s instructions.

Test [2] relates to PKM2 knockdown HCT116 cells. The test can be described thus: annexin v stain apoptosis assay in PKM2 knockdown cells. In kind it is cell-based, human. The following applies: 20 µM, 12 h.
From the text: Fig. 5 Identification and characterization of PKM2 inhibitors. a PKM2 inhibitors. […] It prints only the data set name 'Data: pkm2_NDH', so the substance label is left empty. / Panel b, N: small print, 0.941 ±0.0712, digits uncertain / Panel b, K: small print, 8.63E4 ±3.63E4, the digits 8, 6 and 3 are uncertain / Panel b, ΔH: small print, -5962 ±675.9, the digits 5, 9 and 6 are uncertain / Panel b, ΔS: small print, 2.59, the digits 5 and 9 are uncertain
as §1
Two shRNAs with PKM2 specific exon 10 sequence knockdown were used (5'-[…]-3'; 5'-[…]-3'), and a shRNA with no effect on PKM2 levels was employed as a control (5'-[…]-3). […]

The test system of test [3] is PKM2 mitochondrial translocation. In words: PKM2 mitochondrial translocation (fractionation, western blot) in HCT116 cells. The following applies: 20 μM, glucose starvation, HCT116. Type of test: cell-based, human. How it is done:
Fig. 6 Compound 8 blocks PKM2 mitochondrial translocation under nutritional stress and inhibits tumor growth in vivo. a Compound 8 blocks glucose starvation induced PKM2 mitochondrial translocation. Isolation of mitochondria and immunoblot of PKM2, tubulin and Tom 40 were carried out with or without compound 8 treatment. b Compound 8 disrupts interaction of PKM2 and VDAC3. HCT116 cells were transfected with HA-tagged PKM2, cells were harvested and subjected to stag pull down after 8 h 20 µM compound 8 treatment. c Compound 8 induces VDAC3 for degradation. cells were harvested and evaluated VDAC3 protein levels after 8 h 10 or 20 µM compound 8 treatment. d, e Compound 8 caused a decrease in the rate of NADH oxidation. After 8 h of treatment with 20 µM compound 8, HCT116 cells mitochondria were isolated for NADH oxidation assays. NAD/NADH ratios in HCT116 cell lysates were evaluated by LC–MS. f Compound 8 inhibited ATP production in HCT116 cells. g The tumor volume (n = 7) of HCT116 xenografts from mice with intraperitoneal injection of compound 8 and vehicle control
HCT116 cells were harvested and washed two times with cold PBS. Cells were then homogenized in a buffer (220 mM mannitol, 70 mM sucrose, 2 mM EGTA, 5 mM MOPS-Tris pH 7.4, 2 mM Taurine, 0.2% BSA). The homogenate was spun for 5 min at 800g.The supernatant containing the cytoplasmic and mitochondrial fractions were transferred to a fresh tube and spun for 5 min at 12,000g. The pellet contained the mitochondrial fraction and the supernatant contained the cytoplasmic fraction.
Cells were lysed in buffer containing 50 mM Tris pH8.0, 2 mM EDTA, 150 mM NaCl, 0.5% Nonidet P-40, 10% glycerol and protease inhibitor PMSF. Western blot analysis was carried out based on standard methods. The following commercial antibodies were used as probes: anti-Flag antibody (Sigma, F3165), anti-HA antibody (Sigma, H3663), anti-α-Tubulin (EasyBio, BE0026–100), anti-PKM2 (RuiYingBio, RLT3777), anti-TOM 40 (Santa Cruz sc-365467), anti-succinyllysine antibody (PTM BIO PTM-901), anti-GAPDH (SanJian).

The test system of test [4] is HCT116 cells. The test can be described thus: ATP measurement, Cell Titer-Glo, HCT116 cells. In kind it is cell-based, human. The following applies: 10 or 20 μM, 8 h. The protocol:
HCT116 cells were cultured in DMEM containing 10% FBS and seeded into six-well plates. Twenty-four hour after seeding, the medium was changed to DMEM containing 10 or 20 μM compound 8 for 8 h. ATP levels were measured using the Cell Titer-Glo Luminescent Cell Viability Assay (Promega).
On the technique in general: In ATP-based viability assays light output follows the ATP content of the culture.

A further test has as its target PKM2 (Homo sapiens, UniProt P14618). The test can be described thus: pyruvate kinase activity in lysate of treated HCT116 cells. In kind it is cell-based. Also noted: endogenous in cells; host or cells: HCT116. The settings on record: 6 h treatment, Fig. 5c. The protocol:
HCT116 cells were seeded overnight into 6-well plates at 1,000,000 cells/well in DMEM media. Test compounds were added for 6 h. Cells were washed two times with ice-cold phosphate-buffered saline (PBS) and lysed in lysis buffer. Lysate was analyzed for pyruvate kinase activity as described above.

Chain of PKM2 (P14618 2-531 limits assumed): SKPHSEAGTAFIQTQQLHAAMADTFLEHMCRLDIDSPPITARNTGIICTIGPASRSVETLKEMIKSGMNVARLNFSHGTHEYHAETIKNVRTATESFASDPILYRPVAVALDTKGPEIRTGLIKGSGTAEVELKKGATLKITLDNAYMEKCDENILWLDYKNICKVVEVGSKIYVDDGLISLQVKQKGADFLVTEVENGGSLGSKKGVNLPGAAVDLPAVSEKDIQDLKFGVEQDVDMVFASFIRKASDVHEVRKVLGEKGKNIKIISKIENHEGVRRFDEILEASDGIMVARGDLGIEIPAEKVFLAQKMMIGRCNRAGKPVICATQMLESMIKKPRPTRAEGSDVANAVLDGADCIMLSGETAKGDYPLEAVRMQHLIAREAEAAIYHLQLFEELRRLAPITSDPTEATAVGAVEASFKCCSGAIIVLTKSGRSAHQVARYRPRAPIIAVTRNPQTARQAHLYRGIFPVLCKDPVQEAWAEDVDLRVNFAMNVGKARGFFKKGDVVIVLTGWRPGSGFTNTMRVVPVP
T1 sequence (P14618 1-531 isoform P14618-2): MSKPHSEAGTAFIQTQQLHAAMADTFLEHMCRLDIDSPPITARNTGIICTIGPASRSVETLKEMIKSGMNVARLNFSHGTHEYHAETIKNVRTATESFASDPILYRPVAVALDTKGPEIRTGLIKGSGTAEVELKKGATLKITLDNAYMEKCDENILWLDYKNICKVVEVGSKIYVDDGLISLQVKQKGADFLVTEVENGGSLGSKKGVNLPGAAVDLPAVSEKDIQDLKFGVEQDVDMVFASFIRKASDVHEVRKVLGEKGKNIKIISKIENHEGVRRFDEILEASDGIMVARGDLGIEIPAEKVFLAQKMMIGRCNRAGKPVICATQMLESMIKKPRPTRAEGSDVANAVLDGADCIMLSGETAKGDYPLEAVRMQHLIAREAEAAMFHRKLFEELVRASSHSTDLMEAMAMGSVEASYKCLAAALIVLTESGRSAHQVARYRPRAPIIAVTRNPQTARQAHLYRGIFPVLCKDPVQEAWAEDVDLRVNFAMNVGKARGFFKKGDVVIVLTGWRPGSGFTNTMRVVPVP

With `CCCN(CCC)P(N)(=O)OCC1=CC(=O)c2ccccc2C1=O` (centres unmarked) [Compound 8], the IC50 was 10.5 ± 1.52 µM on PKM1; around 5 µM in the test with HCT116 cells [1] (Homo sapiens, HCT-116, 48 h); 5.19 ± 1.74 µM with HCT116 cells [1]. For the same molecule, the “apoptosis of PKM2 knockdown cells” value in test [2] is “increased the apoptosis of PKM2 knockdown cells”. Besides, the PKM2 mitochondrial translocation entry in test [3] is listed as “can restrain PKM2 mitochondrial translocation”. Also, the “cellular ATP production” value in the test on HCT116 cells [4] is “inhibited cellular ATP production in a concentration-dependent manner”. The “inhibition of PKM2 activity in cancer cells” value on PKM2 is given as “inhibits PKM2 activity in HCT116 cells in a dose dependent manner”; against PKM2 (listed as compound 8), “dose dependent”.
